According to patent publication US5965088A, “Method for providing rapid disinfection of contact lenses” (priority 1997, dated 1999):
Read-outs that look alike come from different tables or passages of the source.

Test system: Serratia marcescens (ATCC 13880)
Assay: Antimicrobial efficacy (stand-alone log reduction), S. marcescens
Format: cell-based
Conditions: for log reduction at 4 ppm / log reduction at 1 ppm / log reduction at 2 ppm / log reduction at 3 ppm / log reduction at 5 ppm / log reduction at 4 µg/mL: Serratia marcescens; for log reduction at 4 µg/mL: 4.0 ppm alexidine in ReNu MPS; for Log Reduction S. marcescens: PAPB 0.0
Protocol: This Example illustrates the microbiocidal efficacy of solutions according to the present invention. The antimicrobial efficacy of each of various compositions for the chemical disinfection of contact lenses was evaluated. Microbial challenge inoculums were prepared using Pseudomonas aeruginosa (ATCC 9027), Staphylococcus aureus (ATCC 6538), Serratia marcescens (ATCC 13880), Candida albicans (ATCC 10231), and Fusarium solani (ATCC 36031). The test organisms were cultured on appropriate agar and the cultures were harvested using sterile DPBST (Dulbecco's Phosphate Buffered Saline plus 0.05% w/v polysorbate 80) or a suitable diluent and transferred to a suitable vessel. Spore suspensions were filtered through sterile glass wool to remove hyphal fragments. Serratia marcescens, as appropriate, was filtered (eg., through a 1.2 μ filter) to clarify the suspension. After harvesting, the suspension was centrifuged at no more than 5000× g for a maximum of 30 minutes at 20-25° C. The supernatant was poured off and resuspended in DPBST or other suitable diluent. The suspension was centrifuged a second time, and resuspended in DPBST or other suitable diluent. All challenge bacterial and fungal cell suspensions were adjusted with DPBST or other suitable diluent to 1×10^7 -10^8 cfu/mL. The appropriate cell concentration may be estimated by measuring the turbidity of the suspension, for example using a spectrophotometer at a preselected wavelength, for example 490 nm. One tube was prepared containing a minimum of 10 mL of test solution per challenge organism. Each tube of the solution to be tested was inoculated with a suspension of the test organism sufficient to provide a final count of 1.0×10^5 -10^6 cfu/mL, the volume of the inoculum not exceeding 1% of the sample volume. Dispersion of the inoculum was ensured by vortexing the sample for at least 15 seconds. The inoculated product was stored at 10-25° C. Aliquots in the amount of 1.0 mL were taken of the inoculated product for determination of viable counts after certain time periods of disinfection. The time points for the bacteria were 25, 50, 75, and 100% of the minimum disinfection time. Yeast and mold were tested at an additional timepoint of at least 400% of the minimum disinfection time. The suspension was mixed well by vortexing vigorously for at least 5 second. The 1.0 mL aliquots removed at the specified time intervals were subjected to a suitable series of decimal dilutions in validated neutralizing media. The suspensions were mixed vigorously and incubated for a suitable period of time to allow for neutralization of the microbial agent. The viable count of organisms was determined in appropriate dilutions by preparation of triplicate plates of trypticase soy (TSA) agar for bacteria and Sabouraud dextrose agar (SDA) for mold and yeast. The bacterial recovery plates were incubated at 30-35° C. for 2-4 days. The yeast was incubated at 20-30° C. for 2-4 days and mold recovery plates at 20-25° C. for 3-7 days. The average number of colony forming units was determined on countable plates. Countable plates refer to 30-300 cfu/plates for bacteria and yeast, and 8 to 80 cfu/plate for mold except when colonies are observed only for the 10^0 or 10^-1 dilution plates. The microbial reduction was then calculated at the specified time points. […] Following inoculation in a validated neutralizing broth and incubation for an appropriate period of time, the inoculum control must be between 1.0×10^5 -1.0×10^6 cfu/mL
The solutions were evaluated based on the performance requirement referred to as the "Stand-Alone Procedure for Disinfecting Products" (hereafter the "stand-alone test") and is based on the Disinfection Efficacy Testing for contact lens care products under the Draft Premarket Notification (510(k)) Guidance Document For Contact Lens Care Products dated Apr. 1, 1996, prepared by the U.S. Food and Drug Administration, Division of Ophthalmic Devices. […]

Which log reduction at 4 ppm (ATCC13880, 2.5 min, 4.0 ppm, aged 18 months, Exp. 1, 2.5 min, read-out: Log Reduction) does the source give for `CCCCC(CC)CNC(=N)NC(=N)NCCCCCCNC(=N)NC(=N)NCC(CC)CCCC.Cl.Cl` (stereo not shown) [Alexidine.2HCl, 1,1 '-hexamethylenebis(5-(2-ethylhexyl)-biguanide) dihydrochloride] here?
Its log reduction at 4 ppm is 0.5.

What about the log reduction at 4 ppm (ATCC13880, 2.5 min, 4.0 ppm, aged 18 months, Exp. 2, 2.5 min, read-out: Log Reduction) of the same compound?
Its log reduction at 4 ppm is 0.8.

And the log reduction at 4 ppm (ATCC13880, 2.5 min, 4.0 ppm, aged 18 months, Exp. 3, 2.5 min, read-out: Log Reduction)?
The log reduction at 4 ppm was 0.8.

What about the log reduction at 4 ppm (ATCC13880, 5 min) of the same compound?
The log reduction at 4 ppm was 0.6.

What about the log reduction at 1 ppm (ATCC13880, 5 min, 1.0 ppm, read-out: Log Reduction at 5 Minutes) of the same compound?
The log reduction at 1 ppm was 0.5.

What about the log reduction at 2 ppm (ATCC13880, 5 min, 2.0 ppm, read-out: Log Reduction at 5 Minutes) of the same compound?
The log reduction at 2 ppm was 0.8.

And the log reduction at 3 ppm (ATCC13880, 5 min, 3.0 ppm, read-out: Log Reduction at 5 Minutes)?
Its log reduction at 3 ppm is 1.1.

And the log reduction at 4 ppm (ATCC13880, 5 min, 4.0 ppm, aged 18 months, Exp. 2, 5.0 min, read-out: Log Reduction)?
Its log reduction at 4 ppm is 2.

And the log reduction at 4 ppm (ATCC13880, 5 min, 4.0 ppm, aged 18 months, Exp. 3, 5.0 min, read-out: Log Reduction)?
Its log reduction at 4 ppm is 2.

What about the log reduction at 4 ppm (ATCC13880, 5 min, 4.0 ppm, read-out: Log Reduction at 5 Minutes) of the same compound?
The log reduction at 4 ppm was 2.

What about the log reduction at 5 ppm (ATCC13880, 5 min, 5.0 ppm, read-out: Log Reduction at 5 Minutes) of the same compound?
Its log reduction at 5 ppm is 2.9.

And the log reduction at 4 ppm (ATCC13880, 0.125 h, 4.0 ppm, aged 18 months, Exp. 1, 7.5 min, read-out: Log Reduction)?
Its log reduction at 4 ppm is 0.9.

What about the log reduction at 4 ppm (ATCC13880, 0.125 h, 4.0 ppm, aged 18 months, Exp. 2, 7.5 min, read-out: Log Reduction) of the same compound?
The log reduction at 4 ppm was 2.8.

What about the log reduction at 4 ppm (ATCC13880, 0.125 h, 4.0 ppm, aged 18 months, Exp. 3, 7.5 min, read-out: Log Reduction) of the same compound?
Its log reduction at 4 ppm is 2.2.

What about the log reduction at 4 ppm (ATCC13880, 10 min) of the same compound?
Its log reduction at 4 ppm is 1.2.

What about the log reduction at 1 ppm (ATCC13880, 10 min, 1.0 ppm, read-out: Log Reduction at 10 Minutes) of the same compound?
Its log reduction at 1 ppm is 0.7.

What about the log reduction at 2 ppm (ATCC13880, 10 min, 2.0 ppm, read-out: Log Reduction at 10 Minutes) of the same compound?
The log reduction at 2 ppm was 1.8.

What about the log reduction at 3 ppm (ATCC13880, 10 min, 3.0 ppm, read-out: Log Reduction at 10 Minutes) of the same compound?
The log reduction at 3 ppm was 2.6.

And the log reduction at 4 ppm (ATCC13880, 10 min, 4.0 ppm, aged 18 months, Exp. 2, 10.0 min, read-out: Log Reduction)?
The log reduction at 4 ppm was 2.8.

What about the log reduction at 4 ppm (ATCC13880, 10 min, 4.0 ppm, aged 18 months, Exp. 3, 10.0 min, read-out: Log Reduction) of the same compound?
Its log reduction at 4 ppm is 2.2.

And the log reduction at 4 ppm (ATCC13880, 10 min, 4.0 ppm, read-out: Log Reduction at 10 Minutes)?
Its log reduction at 4 ppm is greater than 4.8.

And the log reduction at 5 ppm (ATCC13880, 10 min, 5.0 ppm, read-out: Log Reduction at 10 Minutes)?
Its log reduction at 5 ppm is greater than 4.8.

What about the log reduction at 4 ppm (ATCC13880, 0.25 h) of the same compound?
The log reduction at 4 ppm was 3.

And the log reduction at 4 ppm (ATCC13880, 0.25 h, 4.0 ppm, Ex. 6, aged 19 months at 25 °C, 15 min, read-out: Log Reduction)?
The log reduction at 4 ppm was 3.2.

What about the log reduction at 4 ppm (ATCC13880, 0.25 h, 4.0 ppm, Ex. 8, different batch aged 19 months at 25 °C, 15 min, read-out: Log Reduction) of the same compound?
Its log reduction at 4 ppm is 2.5.

And the log reduction at 4 ppm (ATCC13880, 0.5 h, 4.0 ppm, Ex. 6, aged 19 months at 25 °C, 30 min, read-out: Log Reduction)?
Its log reduction at 4 ppm is greater than 4.7.

And the log reduction at 4 ppm (ATCC13880, 0.5 h, 4.0 ppm, Ex. 7, different lot aged 18 months, 30 min, read-out: Log Reduction)?
Its log reduction at 4 ppm is 4.7.

What about the log reduction at 4 ppm (ATCC13880, 0.5 h, 4.0 ppm, Ex. 8, different batch aged 19 months at 25 °C, 30 min, read-out: Log Reduction) of the same compound?
The log reduction at 4 ppm was 4.6.

And the log reduction at 4 ppm (ATCC13880, 0.75 h, 4.0 ppm, Ex. 6, aged 19 months at 25 °C, 45 min, read-out: Log Reduction)?
The log reduction at 4 ppm was greater than 4.7.

And the log reduction at 4 ppm (ATCC13880, 0.75 h, 4.0 ppm, Ex. 7, different lot aged 18 months, 45 min, read-out: Log Reduction)?
The log reduction at 4 ppm was greater than 4.8.

What about the log reduction at 4 ppm (ATCC13880, 0.75 h, 4.0 ppm, Ex. 8, different batch aged 19 months at 25 °C, 45 min, read-out: Log Reduction) of the same compound?
The log reduction at 4 ppm was greater than 4.7.

What about the log reduction at 1 ppm (ATCC13880, 1 h, 1 ppm, 1 hr, read-out: Log Reduction) of the same compound?
Its log reduction at 1 ppm is 3.5.

And the log reduction at 2 ppm (ATCC13880, 1 h, 2 ppm, 1 hr, read-out: Log Reduction)?
The log reduction at 2 ppm was greater than 4.8.

And the log reduction at 3 ppm (ATCC13880, 1 h, 3 ppm, 1 hr, read-out: Log Reduction)?
Its log reduction at 3 ppm is greater than 4.8.

And the log reduction at 4 µg/mL (ATCC13880, 1 h, 1 hr)?
The log reduction at 4 µg/mL was 3.7.

And the log reduction at 4 ppm (ATCC13880, 1 h, 4 ppm, 1 hr, read-out: Log Reduction)?
Its log reduction at 4 ppm is greater than 4.8.

And the log reduction at 4 ppm (ATCC13880, 1 h, 4.0 ppm, Ex. 6, aged 19 months at 25 °C, 60 min, read-out: Log Reduction)?
Its log reduction at 4 ppm is greater than 4.7.

What about the log reduction at 4 ppm (ATCC13880, 1 h, 4.0 ppm, Ex. 7, different lot aged 18 months, 60 min, read-out: Log Reduction) of the same compound?
The log reduction at 4 ppm was greater than 4.8.

And the log reduction at 4 ppm (ATCC13880, 1 h, 4.0 ppm, Ex. 8, different batch aged 19 months at 25 °C, 60 min, read-out: Log Reduction)?
The log reduction at 4 ppm was greater than 4.7.

What about the log reduction at 5 ppm (ATCC13880, 1 h, 5 ppm, 1 hr, read-out: Log Reduction) of the same compound?
The log reduction at 5 ppm was greater than 4.8.

What about the log reduction at 4 µg/mL (ATCC13880, 2 h, 2 hr) of the same compound?
The log reduction at 4 µg/mL was greater than 4.7.

What about the log reduction at 4 µg/mL (ATCC13880, 3 h, 3 hr) of the same compound?
The log reduction at 4 µg/mL was greater than 4.7.

What about the log reduction at 4 µg/mL (ATCC13880, 4 h, 4 hr) of the same compound?
The log reduction at 4 µg/mL was greater than 4.7.

What about the “Log Reduction S. marcescens” value (alexidine 0.5 ppm, 15 min) of the same compound?
Its value is 0.6 log.

And the “Log Reduction S. marcescens” value (alexidine 0.5 ppm, 30 min)?
Its value is 1.6 log.

What about the “Log Reduction S. marcescens” value (alexidine 0.5 ppm, 60 min) of the same compound?
The value was 2.5 log.

And the “Log Reduction S. marcescens” value (alexidine 2.6 ppm, 15 min)?
Its value is 2.2 log.

What about the “Log Reduction S. marcescens” value (alexidine 2.6 ppm, 30 min) of the same compound?
The value was greater than 4.3 log.

And the “Log Reduction S. marcescens” value (alexidine 2.6 ppm, 60 min)?
The value was greater than 4.3 log.
